Like-named read-outs stand apart in the source and are kept apart here.
Columns and labels:
[1] = target: T1, Aβ40 peptide (Homo sapiens, UniProt P05067); experiment: Isothermal titration calorimetry; assay type: binding; design: purchased rPeptides, Watkinsville, Ga., USA kit #A-1180-1; host or cells: E. coli; conditions: 1 mM DMG injected instead of nickel; data not shown
Source text: Nickel binding to human recombinant Aβ40 peptide is confirmed by isothermal titration calorimetry. Isothermal titration calorimetry (ITC) has been already used to analyze copper or zinc binding to various Aβ peptides, including Ab40 (Talmard et al. Biochemistry 46, 13658-13666 (2007); Sacco et al. JBIC Journal of Biological Inorganic Chemistry 17, 531-541 (2012); Hatcher et al. The journal of physical chemistry B 112, 8160-8164 (2008)). In the current study, we used ITC to determine whether nickel can bind the Aβ40 peptide. The peptide (same used in ThT-based aggregation assays) was present in the sample cell at a concentration of 20 μM. Twenty injections of NiSO4 (1 mM solution, 5 μM increments in sample cell) were performed every 5 min under constant stirring (350 rpm) at 25° C., and the heat release was measured (FIG. 9). The heat release profile indicates Ni binding to the peptide (FIG. 9, top Panel).
Isothermal Titration Calorimetry. […] Briefly, 1 mg of lyophilized Aβ40 peptide (#A-1157-2, rPeptides) was resuspended with 1% NH4OH to a concentration of 250 μM, sonicated for 15-20 sec, before being diluted to a final concentration of 20 μM Aβ40 using ddH2O and TBS 10×, pH 7.4 (working buffer: NH4OH 0.2%, TBS 1×, pH 7.4 (“NTBS”)). […] All samples were degassed for 15 min at 25° C. before use. Titration was initiated using a program for 20 injections (2.38 μL each, every 5 min) with continuous stirring (350 rpm) at constant temperature (25° C.). ITC data were analyzed using NanoAnalyze 1.2 software (TA Instruments). Data obtained with the control experiment (Aβ40 peptide in sample cell, buffer in syringe) were subtracted from each experiment to account for any injection-related heat change.

[2] = tested on: Helicobacter pylori 43504; experiment: Antibiofilm assay on established biofilm; assay type: cell-based; conditions: DMG added for additional 24 hours
Experimental: Antibiofilm assay. H. pylori culture at OD600=0.15 was added to a non-tissue culture treated polystyrene 96 well plate (Falcon) and incubated at 37° C. micro-aerobically without shaking for 48 hours. After the initial incubation, the supernatant was removed from the wells and BHI+0.4% β-cyclodextran was added back to the wells with or without Na2DMG at various concentrations. The plate was then incubated an additional 24 hours. Then, the crystal violet biofilm assay was performed as above.

[3] = tested on: C. jejuni (strain 81-176, ATCC BAA-2151); experiment: Growth inhibition, solid plates (CFU); assay type: cell-based, Campylobacter jejuni
[4] = target: T1, Aβ40 peptide; experiment: Thioflavin T (ThT)-based Aβ40 aggregation assay; assay type: biochemical; design: purchased rPeptides, Watkinsville, Ga., USA kit #A-1180-1; host or cells: E. coli; conditions: for remaining activity at 100 µM: DMG 100 μM; for remaining activity at 100 µM / remaining activity at 500 µM / remaining activity at 1000 µM: read-out: Relative Aβ40 aggregation rate (% control); for remaining activity at 500 µM: DMG 500 μM; for remaining activity at 1000 µM: DMG 1000 μM
Experimental: Amyloid Beta aggregation. […] This kit contained human recombinant Aβ40 peptide (>97% pure, as determined by manufacturer's HPLC) with the following sequence […] (SEQ ID NO:1), as provided by the manufacturer. […] The aggregation of Aβ40, was shown by the increase in fluorescence (lex=440 nm/lem=485 nm) over time, was followed for 60 min or 120 min, with reading every three or five min, using a Synergy MX reader (Biotek, Winooski, Vt.). A ThT-only background control (no Aβ40 peptide) was included in triplicate in all experiments and subtracted from all readings. The aggregation rate, defined as the increase in fluorescence per min (RFU/min), was calculated by using the formula [A(440,485) at T40min)−A(440,485) at T20min]/20.

[5] = tested on: urease activity in K. pneumoniae BAA-2472; experiment: Urease assay on cell-free extracts of cells grown with DMG; assay type: biochemical; conditions: overnight
Experimental: Thus, similar to hydrogenase inhibition, it appears DMG-mediated Ni chelation can be used to efficiently block urease activity in Klebsiella.
Urease assays. […] Cells were pelleted at 6,000 rpm for 30 minutes and washed three times with PBS (pH 7.4). Cells were standardized to an optical density (OD600) of 4.5, added to sterile glass beads (0.1 mm diameter, Biospec Products, Bartlesville, Okla.) at a 100% w/v ratio, and frozen at −80° C. The bead and cell mixture was thawed at room temperature and vortexed at 3,200 rpm for six minutes with one minute intervals on ice. The mixture was pelleted at 14,000 rpm for two minutes and the cell-free supernatant was assayed for urease activity using the phenol-hypochlorite method (Weatherburn et al. 1967. Analytical Chemistry 39:971-974). Protein concentration was determined using the BCA protein kit (Thermo Fisher Pierce, Rockford, Ill., USA). Urease activity is expressed as μmoles of NH3 produced per minute per mg of total protein.

[6] = experiment B, no supplemental metal
[7] = experiment C, no supplemental metal

T1 sequence (P05067 672-711): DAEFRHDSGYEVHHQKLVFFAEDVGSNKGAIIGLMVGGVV

Structure (SMILES): CC(=NO)C(C)=NO [DMG, dimethylglyoxime]
- binding to Aβ40 peptide (ITC) [1]: cannot bind to the peptide
- effect on established (48 hours of growth) biofilm [2]: able to counteract
- effect on growth (CFUs) ([3]; BHI plates, 5 mM DMG + CuSO4 1 μM to 500 μM, no detectable growth (detection limit: 200 CFUs)): bactericidal
- effect on growth (CFUs, colony size) ([3]; BHI plates, 5 mM DMG, 24 hours): bacteriostatic
- effect on growth ([3]; DMG (2 mM)/Cu (0.5 mM) combination): bactericidal
- inhibition of Aβ40 aggregation ([4]; 500 mM or 1000 mM DMG (so in the source), no supplemented metal): partial or full inhibition
- remaining activity at 100 µM ([4]; experiment A, Cu 10 μM): 54 ± 12%
- remaining activity at 100 µM ([4]; experiment A, Ni 10 μM): 58 ± 11%
- remaining activity at 100 µM ([4]; experiment A, Zn 10 μM): 457 ± 39%
- remaining activity at 100 µM ([4]; experiment A, no supplemental metal): 33 ± 2%
- remaining activity at 100 µM ([4]; experiment B, Ni 100 μM): 410 ± 91%
- remaining activity at 100 µM [4, 6]: 15 ± 14%
- remaining activity at 500 µM ([4]; experiment B, Ni 100 μM): < 1%
- remaining activity at 500 µM ([4]; experiment B, Zn 100 μM): 833 ± 156%
- remaining activity at 500 µM [4, 6]: < 1%
- remaining activity at 1000 µM ([4]; experiment B, Ni 100 μM): < 1%
- remaining activity at 1000 µM ([4]; experiment B, Zn 100 μM): 328 ± 63%
- remaining activity at 1000 µM [4, 6]: < 1%
- remaining activity at 100 µM ([4]; experiment C, Cu 100 μM): 66 ± 15%
- remaining activity at 100 µM [4, 7]: 48 ± 8%
- remaining activity at 500 µM ([4]; experiment C, Cu 100 μM): 49 ± 8%
- remaining activity at 500 µM [4, 7]: 15 ± 5%
- remaining activity at 1000 µM ([4]; experiment C, Cu 100 μM): 40 ± 3%
- remaining activity at 1000 µM [4, 7]: 21 ± 10%
- inhibition of Aβ40 aggregation ([4]; increasing amounts of DMG in presence of 100 mM Cu^2+ or Zn^2+ (so in the source)): partial inhibition
- inhibition of Aβ40 aggregation ([4]; increasing amounts of DMG in presence of 100 mM Ni^2+ (so in the source)): Complete inhibition
- Aβ40 peptide aggregation under all pHs tested ([4]; pH 6.5, 7.5 or 8.5, 25 mM Aβ40, CuSO4 25 mM, ZnSO4 10 mM or DMG 100 mM (so in the source)): negligible
- Urease activity ([5]; DMG 1 mM in LB broth): 0.05 ± 0.01 μmoles of NH3 produced per minute per mg of total protein
- Urease activity ([5]; DMG 2 mM in LB broth): 0.03 ± 0.01 μmoles of NH3 produced per minute per mg of total protein

— US20220117266A1, “NICKEL CHELATION THERAPY” (priority 2019, published 2022)
